Experimental data from patent US20230312550A1, “N-(2-(4-CYANOTHIAZOLIDIN-3-YL)-2-OXOETHYL)-QUINOLINE-4-CARBOXAMIDES” (AstraZeneca AB, priority 2020, published 2023).
Values after ≈ are worked out from the molar mass of the structure shown.

Assays:
FAP [1] = molecular target: FAP (Mus musculus (Mouse), UniProt P97321); assay: FAP plasma inhibition assay, mouse plasma; assay type: biochemical; conditions: mouse plasma diluted 1:67, Ala-Pro-AMC 75 μM
Method: This assay was adapted from the method described in Example 237 for detection of FAP target engagement enzyme activity in plasma. Plasma (anticoagulant K2EDTA) was used as the enzyme source: Human plasma (Pooled from AZ Biobank), Mouse plasma (AZ AST Biobank), and Cynomolgus plasma (BioIVT, #NHP00PLK2FNN, lot CYN222895). 384-Well black fluotrack PS plates (Greiner 781076) were used. 20 μL diluted plasma (Cynomolgus and Human plasma dilution 1:40, Mouse plasma dilution 1:67) in buffer (PBS, 0.1% BSA) was added to 0.6 μL compounds (in DMSO). Compounds were tested using 10 CR, 3 fold dilution series from 500 nM FAC. Two replicates for each assay point were run on the same plate. A fluorescence blank read was taken before substrate addition. […] Plates were incubated for 40 min at rt in the dark. […] IC50 values were determined by plotting % inhibition versus log compound concentration.

hFAP (M39-A757) = hFAP (M39-A757) (Homo sapiens (Human), UniProt Q12884); assay: hFAP binding assay (surface plasmon resonance); conditions: SPR, 20° C.; for hFAP Binding assay k(off) / hFAP Binding assay k(on): single cycle kinetics; for Kd: n = 1 or geometric mean n = 2-4
[2] = molecular target: Prolyl endopeptidase, Prolyl Oligopeptidase (hPREP) (Homo sapiens (Human), UniProt P48147); assay: hPrep inhibition assay; assay type: biochemical; conditions: hPREP 0.6 nM, Z-Gly-Pro-amino-methylcoumarin 50 μM; read-out: PREP IC50
Method in brief: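 Recombinant human PREP at 0.6 nM final with Z-Gly-Pro-AMC substrate at 50 μM final in Tris-HCl pH 7.5, NaCl, Triton X-100, glutathione; 15 min rt preincubation then 20 min rt reaction in dark. AMC fluorescence (ex 340/em 460 nm); IC50 from one-site dose-response fit of % inhibition.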

FAP [3] = molecular target: FAP (Homo sapiens (Human), UniProt Q12884); assay: hFAP inhibition assay; assay type: biochemical; conditions: Ala-Pro-AMC 20 μM, n = 1 or geometric mean n = 2-3
Method in brief: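 Human FAP (0.48 nM) in 100 mM Tris HCl, 100 mM NaCl, 0.05% Chaps, pH 7.4 was preincubated 15 min at rt in the dark with compounds (10-point, 3-fold series from 50 μM). Substrate was added from a 40 μM solution, then 30 min at rt. Fluorescence read at ex 340/em 460 nm; IC50 from one-site dose-response fit of % inhibition.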

[4] = Metabolic stability in human liver microsomes (HLM); conditions: human
Method: Metabolic stability in HLM was measured as described in J Comput Aided Mol Des 2015, 29, 795.

[5] = Metabolic stability in rat hepatocytes (rHep); conditions: n = 1 or geometric mean of n = 2-3
Caco-2 cell permeability = conditions: human
Method: Caco-2 cell permeability was measured as described in Mol Pharm 2017, 14, 1601.

Kinetic solubility = conditions: kinetic from dmso stock
Method: Kinetic solubility was measured as described in Comput Aided Mol Des 2015, 29, 795.

[6] = molecular target: human Fibroblast activation protein alpha (hFAP) (Homo sapiens (Human), UniProt Q12884); assay: hFAP inhibition assay (tight binders); assay type: biochemical; conditions: Ala-Pro-AMC 20 μM, n = 1 or geometric mean n = 2-6; further: hFAP 2.4 pM
Method: The plates were read on a PHERAstar® reader with excitation 340 nm and emission 460 nm. Data were analyzed in Genedata Screener®. IC50 values were determined by plotting % inhibition versus log compound concentration and using a one site dose response model.

[7] = HLM CLint, n = 1 or average of n = 2-3
[8] = Solubility, kinetic solubility, n = 1 or average of n = 2-3

Prolyl endopeptidase, Prolyl Oligopeptidase (hPREP), sequence (P48147 whole entry): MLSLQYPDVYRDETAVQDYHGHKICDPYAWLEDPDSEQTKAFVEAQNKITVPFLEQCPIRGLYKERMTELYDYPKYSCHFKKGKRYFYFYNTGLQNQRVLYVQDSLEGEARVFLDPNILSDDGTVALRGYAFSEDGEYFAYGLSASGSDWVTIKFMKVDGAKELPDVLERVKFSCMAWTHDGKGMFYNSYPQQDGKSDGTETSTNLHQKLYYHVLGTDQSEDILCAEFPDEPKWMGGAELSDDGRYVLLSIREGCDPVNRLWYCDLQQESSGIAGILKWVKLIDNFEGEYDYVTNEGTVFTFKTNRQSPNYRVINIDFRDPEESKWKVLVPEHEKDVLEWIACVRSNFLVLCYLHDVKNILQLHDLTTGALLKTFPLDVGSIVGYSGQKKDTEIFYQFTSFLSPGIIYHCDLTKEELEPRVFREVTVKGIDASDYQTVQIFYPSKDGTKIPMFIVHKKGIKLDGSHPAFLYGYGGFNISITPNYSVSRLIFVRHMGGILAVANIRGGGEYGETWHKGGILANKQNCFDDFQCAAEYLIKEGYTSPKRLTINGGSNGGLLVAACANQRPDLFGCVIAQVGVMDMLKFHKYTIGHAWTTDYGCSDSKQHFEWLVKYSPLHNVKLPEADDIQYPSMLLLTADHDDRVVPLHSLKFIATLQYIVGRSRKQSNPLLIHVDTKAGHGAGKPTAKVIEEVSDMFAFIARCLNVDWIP
human Fibroblast activation protein alpha (hFAP), sequence (Q12884 38-760): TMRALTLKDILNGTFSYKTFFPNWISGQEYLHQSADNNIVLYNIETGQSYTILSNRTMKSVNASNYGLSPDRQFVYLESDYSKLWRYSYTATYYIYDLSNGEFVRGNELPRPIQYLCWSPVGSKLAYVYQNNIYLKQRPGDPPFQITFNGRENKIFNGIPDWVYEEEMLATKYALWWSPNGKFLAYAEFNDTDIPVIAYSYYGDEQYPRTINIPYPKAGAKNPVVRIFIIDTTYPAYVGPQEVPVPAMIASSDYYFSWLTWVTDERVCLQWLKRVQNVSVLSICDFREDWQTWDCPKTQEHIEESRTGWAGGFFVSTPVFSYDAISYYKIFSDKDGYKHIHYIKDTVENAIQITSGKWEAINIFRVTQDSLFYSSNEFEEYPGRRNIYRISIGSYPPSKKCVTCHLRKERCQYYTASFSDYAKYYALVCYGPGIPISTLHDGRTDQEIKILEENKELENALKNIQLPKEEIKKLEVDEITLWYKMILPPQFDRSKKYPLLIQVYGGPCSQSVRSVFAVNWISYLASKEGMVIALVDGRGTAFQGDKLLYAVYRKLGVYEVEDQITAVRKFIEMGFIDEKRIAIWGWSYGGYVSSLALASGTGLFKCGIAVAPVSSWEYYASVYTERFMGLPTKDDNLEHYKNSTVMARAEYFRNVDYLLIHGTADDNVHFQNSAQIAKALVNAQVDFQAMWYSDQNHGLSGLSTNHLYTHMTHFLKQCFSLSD
FAP (Homo sapiens (Human), UniProt Q12884), sequence (Q12884 38-760): as above
hFAP (M39-A757), sequence (Q12884 39-757): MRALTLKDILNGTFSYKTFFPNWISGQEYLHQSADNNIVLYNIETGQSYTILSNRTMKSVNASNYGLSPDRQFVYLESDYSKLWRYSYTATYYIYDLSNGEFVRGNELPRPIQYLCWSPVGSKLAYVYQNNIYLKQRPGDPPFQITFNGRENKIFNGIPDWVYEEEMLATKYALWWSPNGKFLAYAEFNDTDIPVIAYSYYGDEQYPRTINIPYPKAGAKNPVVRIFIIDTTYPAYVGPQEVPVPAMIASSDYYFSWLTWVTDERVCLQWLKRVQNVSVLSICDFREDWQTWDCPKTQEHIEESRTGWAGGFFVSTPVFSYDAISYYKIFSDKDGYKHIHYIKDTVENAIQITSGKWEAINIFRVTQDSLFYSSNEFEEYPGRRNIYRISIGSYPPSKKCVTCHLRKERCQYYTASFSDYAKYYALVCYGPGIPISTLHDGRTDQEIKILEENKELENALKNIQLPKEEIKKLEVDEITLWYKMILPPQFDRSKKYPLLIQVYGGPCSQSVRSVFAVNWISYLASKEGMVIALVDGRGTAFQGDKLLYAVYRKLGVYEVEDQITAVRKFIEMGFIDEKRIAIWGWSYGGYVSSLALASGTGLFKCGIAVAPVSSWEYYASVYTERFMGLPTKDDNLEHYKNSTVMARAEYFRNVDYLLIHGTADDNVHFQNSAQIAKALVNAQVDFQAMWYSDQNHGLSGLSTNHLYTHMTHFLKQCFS
FAP (Mus musculus (Mouse), UniProt P97321), sequence (P97321 24-761): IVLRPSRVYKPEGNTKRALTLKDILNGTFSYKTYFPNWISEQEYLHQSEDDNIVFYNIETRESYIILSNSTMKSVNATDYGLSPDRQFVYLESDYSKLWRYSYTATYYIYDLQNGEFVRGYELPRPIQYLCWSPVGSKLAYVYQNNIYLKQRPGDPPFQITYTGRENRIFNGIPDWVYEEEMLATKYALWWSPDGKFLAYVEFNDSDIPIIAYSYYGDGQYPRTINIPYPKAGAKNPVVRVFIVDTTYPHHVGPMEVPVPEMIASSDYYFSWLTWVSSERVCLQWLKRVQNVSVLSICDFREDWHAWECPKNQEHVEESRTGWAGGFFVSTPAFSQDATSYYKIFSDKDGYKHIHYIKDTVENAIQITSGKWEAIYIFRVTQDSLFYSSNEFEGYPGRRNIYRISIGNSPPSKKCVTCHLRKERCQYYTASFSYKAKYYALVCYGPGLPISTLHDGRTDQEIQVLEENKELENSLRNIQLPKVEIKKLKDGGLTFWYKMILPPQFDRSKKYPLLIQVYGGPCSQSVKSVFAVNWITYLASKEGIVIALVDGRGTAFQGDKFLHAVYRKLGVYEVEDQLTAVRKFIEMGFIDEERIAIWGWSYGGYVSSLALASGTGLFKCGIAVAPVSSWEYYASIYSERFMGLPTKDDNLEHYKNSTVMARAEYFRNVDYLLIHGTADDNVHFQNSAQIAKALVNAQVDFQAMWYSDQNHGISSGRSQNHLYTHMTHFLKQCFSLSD

Row | IC50 (FAP [1]) [nM] | hFAP Binding assay k(off) (hFAP (M39-A757)) [s⁻¹] | hFAP Binding assay k(on) (hFAP (M39-A757)) [M⁻¹ s⁻¹] | IC50 [2] [nM] | IC50 (FAP [3]; hFAP 0.24 nM) [nM] | microsomal CLint [4, 7] [µL/min/mg] | rHep CLint [5] [μL/min/1E6] | Kd (hFAP (M39-A757)) [nM] | Papp (Caco-2 cell permeability) [×10⁻⁶ cm/s] | solubility (Kinetic solubility; [8]) [µM] | IC50 [6] [nM] | IC50 (FAP [3]; hFAP […]) [nM] | Papp A→B (Caco-2 cell permeability) [×10⁻⁶ cm/s] | Papp B→A (Caco-2 cell permeability) [×10⁻⁶ cm/s] | efflux ratio (Caco-2 cell permeability) | Compound | microsomal CLint [4] [µL/min/mg] | solubility (Kinetic solubility) [µM]
1 | 0.4 | 0.00012 | 1400000 | 760 | – | – | – | – | – | – | – | – | – | – | – | N#C[C@@H]1CSCN1C(=O)CNC(=O)c1ccnc2ccc(-c3cnc4n3CCCC4)cc12 [Example 175, (R)—N-(2-(4-Cyanothiazolidin-3-yl)-2-oxoethyl)-6-(5,6,7,8-tetrahydroimidazo[1,2-a]pyridin-3-yl)quinoline-4-carboxamide] | – | –
2 | – | 0.000064 | 680000 | 640 | 0.33 | 30 | 12 | 0.093 | 16 | 620 | 0.16 | – | – | – | – | CO[C@H]1CCCN(c2ccc3nccc(C(=O)NCC(=O)N4CSC[C@H]4C#N)c3c2)C1 (mixture of isomers) [Example 41, N-(2-((R)-4-Cyanothiazolidin-3-yl)-2-oxoethyl)-6-((RS)-3-methoxypiperidin-1-yl)quinoline-4-carboxamide] | – | –
3 | 0.6 | 0.000076 | 2400000 | 540 | – | – | – | – | – | – | – | – | – | – | – | Cc1nn(C2CCOCC2)c(C)c1-c1ccc2nccc(C(=O)NCC(=O)N3CSC[C@H]3C#N)c2c1 [Example 172, (R)—N-(2-(4-Cyanothiazolidin-3-yl)-2-oxoethyl)-6-(3,5-dimethyl-1-(tetrahydro-2H-pyran-4-yl)-1H-pyrazol-4-yl)quinoline-4-carboxamide] | – | –
4 | 0.8 | 0.00014 | 440000 | 3600 | – | – | – | – | – | – | – | – | – | – | – | CC1(C)CCN(c2ccc3nccc(C(=O)NCC(=O)N4CSC[C@H]4C#N)c3c2)C(=O)O1 [Example 112, (R)—N-(2-(4-Cyanothiazolidin-3-yl)-2-oxoethyl)-6-(6,6-dimethyl-2-oxo-1,3-oxazinan-3-yl)quinoline-4-carboxamide] | – | –
5 | 0.2 | 0.000054 | 110000 | 940 | – | – | – | – | – | – | – | – | – | – | – | N#C[C@@H]1CSCN1C(=O)CNC(=O)c1ccnc2ccc(-c3cnn(C4CCOCC4)c3)cc12 [Example 173, (R)—N-(2-(4-Cyanothiazolidin-3-yl)-2-oxoethyl)-6-(1-(tetrahydro-2H-pyran-4-yl)-1H-pyrazol-4-yl)quinoline-4-carboxamide] | – | –
6 | – | 0.00066 | 5400000 | 110 | – | 27 | 11 | 0.15 | – | 960 (≈ 401 µg/mL) | 0.24 | 0.45 | 0.57 | 26 | 45 | Cc1ncccc1-c1ccc2nccc(C(=O)NCC(=O)N3CSC[C@H]3C#N)c2c1 [Example 128, (R)—N-(2-(4-Cyanothiazolidin-3-yl)-2-oxoethyl)-6-(2-methylpyridin-3-yl)-quinoline-4-carboxamide] | – | –
7 | – | 0.00017 | 1800000 | 250 | – | 8 | 3.9 | 0.095 | – | 350 (≈ 148 µg/mL) | 0.12 | 0.41 | 0.48 | 29 | 59 | Cc1nc(C)c(-c2ccc3nccc(C(=O)NCC(=O)N4CSC[C@H]4C#N)c3c2)o1 [Example 215, (R)—N-(2-(4-Cyanothiazolidin-3-yl)-2-oxoethyl)-6-(2,4-dimethyloxazol-5-yl)quinoline-4-carboxamide] | – | –
8 | 0.6 | – | – | – | – | – | – | – | – | – | – | – | – | – | – | Cc1cc(N2CCOCC2)cc2c(C(=O)NCC(=O)N3CSC[C@H]3C#N)ccnc12 [Example 9] | – | –
9 | 0.4 | 0.00048 | 25000000 | 510 | – | – | – | – | – | – | – | – | – | – | – | CC1(F)CN(c2ccc3nccc(C(=O)NCC(=O)N4CSC[C@H]4C#N)c3c2)C1 [Example 24, (R)—N-(2-(4-Cyanothiazolidin-3-yl)-2-oxoethyl)-6-(3-fluoro-3-methyl-azetidin-1-yl)quinoline-4-carboxamide] | – | –
10 | 0.2 | 0.00026 | 3200000 | 84 | – | – | – | – | – | – | – | – | – | – | – | N#C[C@@H]1CSCN1C(=O)CNC(=O)c1ccnc2ccc(-c3ccn[nH]3)cc12 [Example 196, (R)—N-(2-(4-Cyanothiazolidin-3-yl)-2-oxoethyl)-6-(1H-pyrazol-5-yl)-quinoline-4-carboxamide] | – | –
11 | – | 0.000052 | 1100000 | 220 | – | 92 | 44 | 0.059 | – | 85 (≈ 37.2 µg/mL) | 0.27 | 0.34 | 7.5 | 19 | 2.5 | CC1(C)CCN(c2ccc3nccc(C(=O)NCC(=O)N4CSC[C@H]4C#N)c3c2)CC1 [Example 33, (R)—N-(2-(4-Cyanothiazolidin-3-yl)-2-oxoethyl)-6-(4,4-dimethylpiperidin-1-yl)quinoline-4-carboxamide] | – | –
12 | – | 0.0009 | 5200000 | 190 | – | 58 | 17 | 0.27 | – | 710 (≈ 299 µg/mL) | 1.7 | 2.4 | 0.62 | 40 | 65 | Cc1noc(C)c1-c1ccc2nccc(C(=O)NCC(=O)N3CSC[C@H]3C#N)c2c1 [Example 216, (R)—N-(2-(4-Cyanothiazolidin-3-yl)-2-oxoethyl)-6-(3,5-dimethylisoxazol-4-yl)quinoline-4-carboxamide] | – | –
13 | – | 0.00028 | 3000000 | 220 | – | 12 | 14 | 0.094 | – | 38 (≈ 16 µg/mL) | 0.055 | 0.24 | 0.65 | 39 | 59 | N#C[C@@H]1CSCN1C(=O)CNC(=O)c1ccnc2ccc(-c3ccnc(F)c3)cc12 [Example 124, (R)—N-(2-(4-Cyanothiazolidin-3-yl)-2-oxoethyl)-6-(2-fluoropyridin-4-yl)quinoline-4-carboxamide] | – | –
14 | – | 0.000058 | 100000 | 360 | – | 13 | 7.4 | 0.56 | – | 40 (≈ 16.7 µg/mL) | 0.11 | 0.29 | 1.3 | 22 | 17 | Cc1ccc(-c2ccc3nccc(C(=O)NCC(=O)N4CSC[C@H]4C#N)c3c2)cn1 [Example 177, (R)—N-(2-(4-Cyanothiazolidin-3-yl)-2-oxoethyl)-6-(6-methylpyridin-3-yl)-quinoline-4-carboxamide] | – | –

Row | Compound | IC50 (FAP [1]) [nM] | hFAP Binding assay k(off) (hFAP (M39-A757)) [s⁻¹] | hFAP Binding assay k(on) (hFAP (M39-A757)) [M⁻¹ s⁻¹] | IC50 [2] [nM] | IC50 (FAP [3]; hFAP 0.24 nM) [nM] | microsomal CLint [4, 7] [µL/min/mg] | rHep CLint [5] [μL/min/1E6] | Kd (hFAP (M39-A757)) [nM] | Papp (Caco-2 cell permeability) [×10⁻⁶ cm/s] | solubility (Kinetic solubility; [8]) [µM] | IC50 [6] [nM] | IC50 (FAP [3]; hFAP […]) [nM] | Papp A→B (Caco-2 cell permeability) [×10⁻⁶ cm/s] | Papp B→A (Caco-2 cell permeability) [×10⁻⁶ cm/s] | efflux ratio (Caco-2 cell permeability) | microsomal CLint [4] [µL/min/mg] | solubility (Kinetic solubility) [µM]
15 | N#C[C@@H]1CSCN1C(=O)CNC(=O)c1ccnc2ccc(N3CCCC4(CC4)C3)cc12 [Example 46, (R)—N-(2-(4-Cyanothiazolidin-3-yl)-2-oxoethyl)-6-(5-azaspiro[2.5]octan-5-yl)quinoline-4-carboxamide] | – | 0.000062 | 3000000 | 110 | – | – | 72 | 0.02 | – | – | 0.082 | 0.29 | – | – | – | 190 | 190 (≈ 82.8 µg/mL)
